# Entries after “also recorded” stand apart in the source; their conditions may differ.
# Experiments:
# MDA-MB-436 cells = assay: S-phase PARylation immunofluorescence; type: cell-based, human; conditions: MDA-MB-436 BRCA1− and BRCA1+ cells, 10 or 50 μM overnight
# Procedure: (b) Quantification of the relative PARylation per nucleus from panel a. […] Strong PARylation foci are observed in BRCA1– cells. […] (d) Quantification of the relative PARylation per nucleus from panel c.
# Cells were seeded at a density of 3× 10^5 cells per well in 12-well plates with preplaced coverslips and treated with or without various inhibitor treatments overnight. Cells were then incubated with EdU for 30 min before collection. For PARylation analysis, cells were permeabilized with 0.1% Triton X100, fixed with 4% paraformaldehyde, blocked with the Image-iT FX signal enhancer (Invitrogen), and incubated (1.5 h, RT) with the indicated primary antibodies (PAR/pADPr Antibody; Biotechne). The cells were then washed with PBS buffer and incubated (1 h, RT) with the corresponding secondary antibodies (1:200, Invitrogen). Subsequently, the fixed cells were incubated with the Click-iT reaction mix (100 mM Tris-HCl pH 8.5, […], 1 mM CuSO4, and 100 mM ascorbic acid (Sigma-Aldrich)) for 1 h at RT. The slides were then washed with the PBS buffer, counterstained with DAPI, and analyzed with a fluorescence microscope (Zeiss Observer Z1). […] The slides were then washed with the PBS buffer, incubated with the Click-iT reaction mix for EdU as aforementioned, counterstained with DAPI, and analyzed with a fluorescence microscope (Zeiss Observer Z1).
# [1] = test system: MDA-MB-436 (BRCA1−) and MDA-MB-436 (BRCA1+) cells; assay: Annexin V apoptosis assay; type: cell-based, human; conditions: 5 days of treatment
# Procedure: After 24 h of incubation, testing compounds were added to cells at final concentrations of 50, 25, 12, and 5 μM using the Echo Liquid Handler (Beckman). Subsequently, 10 μL of the NIR-labeled Annexin V apoptosis reagent (Cat. #4768, Sartorius, Germany) was added to each well at a 1:200 final dilution. The plates were then transferred to the Incucyte Live-Cell Analysis System for real-time apoptosis monitoring over a 5 day period. Imaging was conducted using a 10× objective with phase-contrast and near-infrared (NIR) fluorescent channels, capturing scans every 2 h. Image analysis was performed with the Incucyte software, and the total NIR fluorescence intensity was quantified to evaluate the apoptosis.
# [2] = test system: MDA-MB-436 (BRCA1+) tumors; assay: In vivo tumor growth assay, xenograft; design: species or system mouse; conditions: p = 0.64
# Procedure: (§1) The tumor growth rate of human breast cancer cells with or without treatment with EXO1i was evaluated by using a xenograft breast cancer mouse model. […] The tumor volume in each mouse was measured twice a week and calculated using the formula (length × width × width)/2 (mm^3). When the tumors reached a volume of 1000 mm^3, the mice were euthanized. Animal studies were conducted in accordance with an approved protocol adhering to the IACUC policies and procedures of the City of Hope.
# [3] = test system: MDA-MB-436 (BRCA1−) tumors; assay: In vivo tumor growth assay, xenograft; design: species or system mouse; conditions: p = 0.018
# Procedure: as §1
# EXO1 D225A = target: T1, EXO1 D225A (Homo sapiens, UniProt Q9UQ84, D225A); assay: In vitro exonuclease activity of mutant with inhibitors; type: biochemical; conditions: EXO1 25 nM, DNA substrate 250 nM; C200 0-5 μM
# T1 construct: The N-terminal domain of human EXO1 (hEXO1) (residues 1–345) was cloned into the pET28b vector; made in house; host or cells: E. coli BL21(DE3) and Rosetta 2(DE3)
# T1 sequence (Q9UQ84 1-345 D225A): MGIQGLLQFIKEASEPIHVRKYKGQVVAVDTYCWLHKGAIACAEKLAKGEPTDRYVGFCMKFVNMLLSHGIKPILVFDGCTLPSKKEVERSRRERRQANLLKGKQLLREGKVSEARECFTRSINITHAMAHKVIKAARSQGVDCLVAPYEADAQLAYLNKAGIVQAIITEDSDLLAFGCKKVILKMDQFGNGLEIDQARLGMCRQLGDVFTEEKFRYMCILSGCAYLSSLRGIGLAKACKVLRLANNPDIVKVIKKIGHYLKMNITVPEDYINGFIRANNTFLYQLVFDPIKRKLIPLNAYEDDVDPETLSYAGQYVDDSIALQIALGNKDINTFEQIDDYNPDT
# Procedure: (§2) Simultaneously, we tested the effect of each point mutation on the in vitro exonuclease activity. Most mutations in site 1 result in some loss of enzymatic activity compared to WT EXO1 (Figure S13; WT:Figure S13a), particularly K85A and D225A (Figure S13b,f). […] However, at concentrations of 20 and 40 μM, the mutants (K85A and R92A) behaved more like WT (Figure b).
# (§3) In both panels a and b, DMSO without inhibitors was used as a control, and its relative binding activity was set equal to 1.0. The EXO1 enzyme concentration was 25 nM, and the DNA substrate concentration was 250 nM. The values shown are the mean ± S.D. of three independent experiments.
# (§4) The N-terminal domain of human EXO1 (hEXO1) (residues 1–345) was cloned into the pET28b vector. The following mutations were introduced via site-directed mutagenesis based on the findings of molecular docking analysis: K85A, E89A, R92A, I125A, D225A, K292A, and K294A (oligonucleotide primers listed in Table S1) following the established protocol.
# EXO1 E89A = target: T2, EXO1 E89A (Homo sapiens, UniProt Q9UQ84, E89A); assay: as above; type: biochemical; conditions: EXO1 25 nM, DNA substrate 250 nM
# T2 construct: The N-terminal domain of human EXO1 (hEXO1) (residues 1–345) was cloned into the pET28b vector; made in house; host or cells: E. coli BL21(DE3) and Rosetta 2(DE3)
# T2 sequence (Q9UQ84 1-345 E89A): as the sequence (Q9UQ84 1-345 D225A) above, with E89A, A225D counted along it
# Procedure: as §2, §3, §4
# EXO1 I125A = target: T3, EXO1 I125A (Homo sapiens, UniProt Q9UQ84, I125A); assay: as above; type: biochemical; conditions: EXO1 25 nM, DNA substrate 250 nM
# T3 construct: The N-terminal domain of human EXO1 (hEXO1) (residues 1–345) was cloned into the pET28b vector; made in house; host or cells: E. coli BL21(DE3) and Rosetta 2(DE3)
# T3 sequence (Q9UQ84 1-345 I125A): as the sequence (Q9UQ84 1-345 D225A) above, with I125A, A225D counted along it
# Procedure: as §2, §3, §4
# SF-295 = assay: Cell line drug profiling, CellTiter Glo; type: cell-based, human; conditions: Homo sapiens, SF-295, 72 h
# Procedure: We tested the cytotoxicity of representative compounds from the seven EXO1i scaffolds against a subset of the NCI-60 cell line panel along with three additional pancreatic cell lines (FG, AsPC1, and CaPan2). In general, cells were seeded in 384-well tissue culture-treated plates overnight and treated with various concentrations of each hit compound (a serial 3-fold dilution from 50 μM for all tested hits). Each concentration was performed in duplicate. Cell viability was then measured by CellTiter Glo (Promega) after 72 h of treatment.
# [4] = 8.5 mg/kg daily intraperitoneal
Compound,S-phase PARylation (MDA-MB-436 cells),"apoptosis (Annexin V fluorescence intensity), BRCA1− vs BRCA1+ [1]","average growth rate of BRCA1+ tumors ([2]; 8.5 mg/kg body weight/day intraperitoneal, NSG mice, vehicle 16.6) [%/day]","tumor volumes compared with vehicle, BRCA1+ tumors [2, 4]","average growth rate of BRCA1– tumors ([3]; 8.5 mg/kg body weight/day intraperitoneal, NSG mice, vehicle […]) [%/day]","tumor volumes compared with vehicle, BRCA1- mouse models [3, 4]",inhibitory activity against EXO1 D225A mutant vs WT (EXO1 D225A),inhibitory activity against EXO1 E89A mutant vs WT (EXO1 E89A),inhibitory activity against EXO1 I125A mutant vs WT (EXO1 I125A),IC50 (SF-295) [µM]
Cc1cccc(N2CCN(c3ccc(NS(=O)(=O)c4ccccc4)c(C(=O)O)c3)CC2)c1C [F684],additive effect,substantially stronger killing effect in a BRCA1– context,15.1,no effect,11.3,significantly reduced tumor volumes,–,–,–,–
COC(=O)c1nc(-c2ccc(OC)cc2)nc(O)c1O [C200],no effect,–,–,–,–,–,partially lost its inhibitory effect; also recorded: abolished,did not have a significant,did not have a significant,> 50

# From article PMC12186255, “Discovery and Characterization of Small Molecule Inhibitors Targeting Exonuclease 1 for Homologous Recombination-Deficient Cancer Therapy” (ACS Chemical Biology, 2025)
